Reference: patent US20230054194A1, “Methods of Treating Cancer” (ARIAGEN, INC., priority 2018, published 2023)

Test system: CT26.WT
Assay: Subcutaneous syngeneic CT26.WT colon carcinoma mouse model, ARI-001 with anti-mCTLA-4 antibody (Example 153)
Type: in vivo
Description: In this example, the in vivo anti-tumor efficacy of ARI-001, an antibody against mouse CTLA-4 (mCTLA-4), and a combination of the two agents was evaluated using the subcutaneous syngeneic CT26.WT (aka CT-26) colon carcinoma mouse model.
CT26.WT cells were obtained from the ATCC and grown in RPMI 1640 medium supplemented with 10% FBS at 37° C. in a 5% CO2 atmosphere. Female Envigo BALB/c mice (BALB/cANNHsd) of 5-6 weeks old were implanted subcutaneously in the right axilla (high) on Day 0 with 5.0×10^5 cells/mouse in 200 μl using a 27-gauge needle and syringe.
ARI-001 powder was dissolved in 100% DMSO to obtain a 106.67 mg/ml dosing formulation with a pH of 7.6. The dosing solution was stored at room temperature and protected from light. The anti-mCTLA-4 9D9 was obtained from BioXcell.
All mice were sorted into study groups based on caliper estimation of tumor burden. Each study group had ten mice. The mice were distributed to ensure that the mean tumor burden for all groups was within 10% of the overall mean tumor burden for the study population. Treatment began on Day 7 at an overall mean tumor burden of 89 mm^3 (range of group means, 87-91 mm^3). All mice were dosed according to individual body weight on the day of treatment (0.2 mL/20 g for anti-mCTLA-4 and vehicle (PBS), 30 μL/20 g for ARI-001 and vehicle (DMSO)). All agents were given to the mice intraperitoneally.
Tumor measurements were recorded three times weekly. Tumor burden (mm^3) was estimated from caliper measurements by the formula for the volume of a prolate ellipsoid assuming unit density as:
Tumor burden(mm^3)=(L×W^2)/2,
The primary endpoints used to evaluate efficacy at the group level were: tumor growth delay, increased time to progression (% ITP), median ΔT/ΔC, complete and partial tumor response, and the number of tumor-free survivors at the end of the study. Tumor growth delay for this experiment was evaluated at 750 mm^3. Time to progression study for this experiment was evaluated at 2,000 mm^3. This is the IACUC required tumor burden limit, and the time to euthanasia can be thought of as a surrogate for lifespan.
In this experiment, median ΔT/ΔC was evaluated when the median control tumor burden reached 1,000 mm^3 (Day 17). A mouse was considered a putative responder if it met at least one of the following criteria: complete regression of the tumor or being at least two standard deviations larger than the median time to progression of the control group. The following are the definitions of the efficacy parameters mentioned above: ΔC and ΔT are individual mouse endpoints that are calculated for each mouse as follows:
Median ΔT/ΔC is a group endpoint. It is calculated for each day of treatment as:
The results are presented as %. When the median ΔT/ΔC is negative (the median treated tumor burden is regressing), the median ΔT/ΔC is not reported and the Median % Regression is reported instead.
Time to Evaluation Size (TES)—TES is an individual mouse endpoint and it is expressed in days from tumor implant. It is the time it takes the tumor burden to reach a specified value, and it can be calculated from any method of evaluating tumor burden (caliper measurements, BLI, anatomical imaging, etc.). It is calculated by log-linear interpolation between the two closest data points that bracket the chosen tumor burden.
Time to Progression (TP)—Time to progression is a surrogate for lifespan, time on study, or lifespan. It is used for studies that involve IACUC mandated euthanasia of animals for excessive tumor burdens (even if the animals otherwise appear normal). The mandated tumor burden limit is tumor model dependent. TP data is analyzed by Kaplan Meier methods just as traditional life span data. The Time to Progression for an individual animal is the number of days between initiation of treatment and the death or required euthanasia of that animal. […]

COC(=O)c1csc(C(=O)c2c[nH]c3ccccc23)n1 [ARI-001]
Incidence of putative responders (CT26.WT, ARI-001 160 mg/kg/inj., 9D9 10 mg/kg/inj.): 70% | Tumor Growth Delay (CT26.WT, ARI-001 160 mg/kg/inj., 9D9 10 mg/kg/inj., intraperitoneally): 2.9 days | Day 17 Median ΔT/ΔC (Day 17, ARI-001 160 mg/kg/inj., 9D9 10 mg/kg/inj., intraperitoneally): 44% | CR (complete response): 0% | MBW Change (mean body weight change during treatment, ARI-001 160 mg/kg/inj., 9D9 10 mg/kg/inj., intraperitoneally): −8.3% | Increase in MTP (median time to progression, 2,000 mm^3, relative to Group 1): 40%
